Assays:
KRas^G12C = target: T1, KRas^G12C (Homo sapiens, UniProt P01116, G12C); assay: KRas binding assay (TR-FRET tracer displacement), KRas G12C; conditions: TR-FRET tracer displacement, KRas G12C
T1 construct: Biotinylated KRas (corresponding to amino acids 1-169, produced at Accelegan Inc.); biotin (biotinylated); purchased Accelegan Inc

KRas^G13D = target: T2, KRas^G13D (Homo sapiens, UniProt P01116, G13D); assay: KRas binding assay (TR-FRET tracer displacement), KRas G13D; conditions: TR-FRET tracer displacement, KRas G13D
T2 construct: Biotinylated KRas (corresponding to amino acids 1-169, produced at Accelegan Inc.); biotin (biotinylated); purchased Accelegan Inc

KRas^G12S = target: T3, KRas^G12S (Homo sapiens, UniProt P01116, G12S); assay: KRas binding assay (TR-FRET tracer displacement), KRas G12S; conditions: TR-FRET tracer displacement, KRas G12S
T3 construct: Biotinylated KRas (corresponding to amino acids 1-169, produced at Accelegan Inc.); biotin (biotinylated); purchased Accelegan Inc

KRas^WT = target: T4, KRas^WT (Homo sapiens, UniProt P01116); assay: KRas binding assay (TR-FRET tracer displacement), KRas WT; conditions: TR-FRET tracer displacement, KRas WT
T4 construct: Biotinylated KRas (corresponding to amino acids 1-169, produced at Accelegan Inc.); biotin (biotinylated); purchased Accelegan Inc

[1] = system: KRas-mediated phosphorylation of ERK in H358 cells; assay: Inhibition of KRas-mediated phosphorylation of ERK (Cisbio HTRF pERK), H358 cells; type: cell-based; conditions: Homo sapiens, NCI-H358, 3 h, single point, 100 nM compound, 3 hrs
Outline: (§1)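 6,000 cells/well; cpd 10 uM top, 3-fold x10, 0.8% DMSO final; 3 hr incubation; Min ctrl Trametinib 0.2 uM; lysis 40 min 4° C shaking; d2 + Cryptate Ab mix, 2 hr RT; HTRF read.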

KRas^G12R = target: T5, KRas^G12R (Homo sapiens, UniProt P01116, G12R); assay: KRas binding assay (TR-FRET tracer displacement), KRas G12R
T5 construct: Biotinylated KRas (corresponding to amino acids 1-169, produced at Accelegan Inc.); biotin (biotinylated); purchased Accelegan Inc

KRas^G12V = target: T6, KRas^G12V (Homo sapiens, UniProt P01116, G12V); assay: KRas binding assay (TR-FRET tracer displacement), KRas G12V
T6 construct: Biotinylated KRas (corresponding to amino acids 1-169, produced at Accelegan Inc.); biotin (biotinylated); purchased Accelegan Inc

[2] = system: KRas-mediated phosphorylation of ERK in A549 cells; assay: Inhibition of KRas-mediated phosphorylation of ERK (Cisbio HTRF pERK), A549 cells; type: cell-based; conditions: Homo sapiens, A549, 3 h, single point, 100 nM compound, 3 hrs
Outline: (§2)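 Signal read by HTRF (d2/Cryptate antibody pair, 2 hr room-temperature incubation on lysate). Cells: 6,000 per well, 3 hr compound exposure. Titration: 10 uM highest, 3-fold, 10 points.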

[3] = system: KRas-mediated phosphorylation of ERK in H727 cells; assay: Inhibition of KRas-mediated phosphorylation of ERK (Cisbio HTRF pERK), H727 cells; type: cell-based; conditions: Homo sapiens; for inhibition at 0.1 µM: NCI-H727, 3 h, single point, 100 nM compound, 3 hrs, H727 cells; for IC50: NCI-H727, H727 cells, HTRF pERK
Outline: as §1

KRas^G12A = target: T7, KRas^G12A (Homo sapiens, UniProt P01116, G12A); assay: KRas binding assay (TR-FRET tracer displacement), KRas G12A; conditions: TR-FRET tracer displacement, KRas G12A
T7 construct: Biotinylated KRas (corresponding to amino acids 1-169, produced at Accelegan Inc.); biotin (biotinylated); purchased Accelegan Inc

KRas^G12D = target: T8, KRas^G12D (Homo sapiens, UniProt P01116, G12D); assay: KRas binding assay (TR-FRET tracer displacement), KRas G12D
T8 construct: Biotinylated KRas (corresponding to amino acids 1-169, produced at Accelegan Inc.); biotin (biotinylated); purchased Accelegan Inc

[4] = system: KRas-mediated phosphorylation of ERK in AsPC-1 cells; assay: Inhibition of KRas-mediated phosphorylation of ERK (Cisbio HTRF pERK), AsPC-1 cells; type: cell-based; conditions: Homo sapiens; for inhibition at 0.1 µM: ASPC1, 3 h, single point, 100 nM compound, 3 hrs, AsPC-1 cells; for IC50: ASPC1, AsPC-1 cells, HTRF pERK
Outline: as §1

KRas^Q61H = target: T9, KRas^Q61H (Homo sapiens, UniProt P01116, Q61H); assay: KRas binding assay (TR-FRET tracer displacement), KRas Q61H; conditions: TR-FRET tracer displacement, KRas Q61H
T9 construct: Biotinylated KRas (corresponding to amino acids 1-169, produced at Accelegan Inc.); biotin (biotinylated); purchased Accelegan Inc

[5] = system: KRas-mediated phosphorylation of ERK in HCT116 cells; assay: Inhibition of KRas-mediated phosphorylation of ERK (Cisbio HTRF pERK), HCT116 cells; type: cell-based; conditions: Homo sapiens, HCT-116, 3 h, single point, 100 nM compound, 3 hrs
Outline: as §2

[6] = system: KRas-mediated phosphorylation of ERK in H460 cells; assay: Inhibition of KRas-mediated phosphorylation of ERK (Cisbio HTRF pERK), H460 cells; type: cell-based; conditions: Homo sapiens, NCI-H460, 3 h, single point, 100 nM compound, 3 hrs
Outline: as §1

T9 sequence (P01116 1-169 isoform P01116-2 Q61H): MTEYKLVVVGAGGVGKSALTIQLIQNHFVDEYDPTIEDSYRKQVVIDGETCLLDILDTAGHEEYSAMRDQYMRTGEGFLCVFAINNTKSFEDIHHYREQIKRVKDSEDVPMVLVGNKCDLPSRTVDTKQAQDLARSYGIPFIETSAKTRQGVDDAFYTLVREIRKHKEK
T4 sequence (P01116 1-169 isoform P01116-2): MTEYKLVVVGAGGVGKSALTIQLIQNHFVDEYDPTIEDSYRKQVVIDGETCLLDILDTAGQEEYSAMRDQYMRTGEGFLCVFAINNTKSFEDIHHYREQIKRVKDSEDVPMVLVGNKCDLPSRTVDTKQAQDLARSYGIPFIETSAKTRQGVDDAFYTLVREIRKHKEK
T6 sequence (P01116 1-169 isoform P01116-2 G12V): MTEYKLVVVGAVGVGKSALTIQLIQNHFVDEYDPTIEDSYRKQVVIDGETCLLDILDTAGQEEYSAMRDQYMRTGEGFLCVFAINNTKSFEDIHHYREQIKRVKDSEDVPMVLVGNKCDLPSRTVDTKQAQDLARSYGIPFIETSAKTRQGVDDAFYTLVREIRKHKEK
T2 sequence (P01116 1-169 isoform P01116-2 G13D): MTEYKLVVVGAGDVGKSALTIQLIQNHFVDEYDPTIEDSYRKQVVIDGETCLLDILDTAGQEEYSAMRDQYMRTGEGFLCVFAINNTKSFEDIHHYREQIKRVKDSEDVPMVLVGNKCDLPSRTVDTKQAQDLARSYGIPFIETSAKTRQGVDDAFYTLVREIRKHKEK
T5 sequence (P01116 1-169 isoform P01116-2 G12R): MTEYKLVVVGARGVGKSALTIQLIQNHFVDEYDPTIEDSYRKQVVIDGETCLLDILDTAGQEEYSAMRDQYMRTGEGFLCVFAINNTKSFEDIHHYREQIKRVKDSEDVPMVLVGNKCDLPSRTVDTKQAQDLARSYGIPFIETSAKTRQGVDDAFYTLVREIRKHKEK
T8 sequence (P01116 1-169 isoform P01116-2 G12D): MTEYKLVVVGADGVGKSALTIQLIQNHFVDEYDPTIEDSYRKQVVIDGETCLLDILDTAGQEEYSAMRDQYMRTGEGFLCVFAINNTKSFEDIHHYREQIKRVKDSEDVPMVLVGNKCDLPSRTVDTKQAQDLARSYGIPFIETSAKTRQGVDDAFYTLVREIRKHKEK
T7 sequence (P01116 1-169 isoform P01116-2 G12A): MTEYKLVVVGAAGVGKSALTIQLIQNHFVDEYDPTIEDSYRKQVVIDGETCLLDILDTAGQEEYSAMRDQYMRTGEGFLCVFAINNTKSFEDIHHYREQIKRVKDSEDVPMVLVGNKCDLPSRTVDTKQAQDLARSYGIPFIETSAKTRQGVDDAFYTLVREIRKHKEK
T3 sequence (P01116 1-169 isoform P01116-2 G12S): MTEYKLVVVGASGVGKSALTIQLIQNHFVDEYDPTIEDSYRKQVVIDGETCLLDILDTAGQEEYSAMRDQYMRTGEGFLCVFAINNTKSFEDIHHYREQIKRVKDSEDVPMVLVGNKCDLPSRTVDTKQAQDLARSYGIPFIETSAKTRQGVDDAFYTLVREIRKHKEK
T1 sequence (P01116 1-169 isoform P01116-2 G12C): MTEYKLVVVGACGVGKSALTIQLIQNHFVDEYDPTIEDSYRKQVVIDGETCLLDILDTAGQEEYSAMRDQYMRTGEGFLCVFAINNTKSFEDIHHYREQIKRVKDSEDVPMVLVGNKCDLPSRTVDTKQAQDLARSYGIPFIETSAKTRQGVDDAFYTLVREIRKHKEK

Compound | IC50 (KRas^G12C) | IC50 (KRas^G13D) | IC50 (KRas^G12S) | IC50 (KRas^WT) | inhibition at 0.1 µM [1] | IC50 (KRas^G12R) | IC50 (KRas^G12V) | inhibition at 0.1 µM [2] | inhibition at 0.1 µM [3] | IC50 (KRas^G12A) | IC50 (KRas^G12D) | inhibition at 0.1 µM [4] | IC50 (KRas^Q61H) | inhibition at 0.1 µM [5] | inhibition at 0.1 µM [6] | IC50 [3] | IC50 [4]
Cc1cc2[nH]c(=O)[nH]c2c(-c2ncc3c(N4CCC[C@@](C)(O)C4)nc(OCC45CCCN4CCC5)nc3c2F)c1C [Example 733, 4-(8-fluoro-4-((R)-3-hydroxy-3-methylpiperidin-1-yl)-2-((tetrahydro-1H-pyrrolizin-7a(5H)-yl)methoxy)pyrido[4,3-d]pyrimidin-7-yl)-5,6-dimethyl-1,3-dihydro-2H-benzo[d]imidazol-2-one] | 1520 nM | 1410 nM | 1400 nM | 1370 nM | -2% | 2670 nM | 1050 nM | 7% | -10% | 1520 nM | 933 nM | -27% | 2280 nM | – | – | – | –
Cc1cc2[nH]nnc2c(-c2ncc3c(N4CCC[C@@](C)(O)C4)nc(OCC45CCCN4CCC5)nc3c2F)c1C [Example 734, (3R)-1-(7-(5,6-dimethyl-1H-benzo[d][1,2,3]triazol-4-yl)-8-fluoro-2-((hexahydro-1H-pyrrolizin-7a-yl)methoxy)pyrido[4,3-d]pyrimidin-4-yl)-3-methylpiperidin-3-ol] | 10600 nM | 10500 nM | 11600 nM | 10500 nM | – | 20600 nM | 11600 nM | – | -3% | 10300 nM | 8110 nM | -18% | 11400 nM | -13% | -3% | – | –
C[C@@]1(O)CCCN(c2nc(OCC34CCCN3CCC4)nc3c(F)c(-c4ccc(F)c5sc(N)nc45)ncc23)C1 [Example 735, (R)-1-(7-(2-amino-7-fluorobenzo[d]thiazol-4-yl)-8-fluoro-2-((hexahydro-1H-pyrrolizin-7a-yl)methoxy)pyrido[4,3-d]pyrimidin-4-yl)-3-methylpiperidin-3-ol] | 3130 nM | 2140 nM | 2770 nM | 1840 nM | – | 3960 nM | 2590 nM | – | -31% | 2680 nM | 1980 nM | 14% | 3530 nM | -2% | 5% | – | –
Nc1nc2c(-c3ncc4c(N5CCCC6(C5)NC(=O)NC6=O)nc(OCC56CCCN5CCC6)nc4c3F)ccc(F)c2s1 (stereo not shown) [Example 736, 7-(7-(2-amino-7-fluorobenzo[d]thiazol-4-yl)-8-fluoro-2-((tetrahydro-1H-pyrrolizin-7a(5H)-yl)methoxy)pyrido[4,3-d]pyrimidin-4-yl)-1,3,7-triazaspiro[4.5]decane-2,4-dione] | 111 nM | 93 nM | 75 nM | 139 nM | 5% | 640 nM | 664 nM | 2% | -4% | 173 nM | 2330 nM | -3% | 26 nM | – | – | – | –
Oc1cc2ccccc2c(-c2ncc3c(N4C[C@@H]5C[C@H](C4)[C@H](O)C5)nc(OC[C@@]45CCCN4C[C@H](F)C5)nc3c2F)c1F [Example 751, (1R,5R,6R)-3-(8-fluoro-7-(2-fluoro-3-hydroxynaphthalen-1-yl)-2-(((2R,7aS)-2-fluorohexahydro-1H-pyrrolizin-7a-yl)methoxy)pyrido[4,3-d]pyrimidin-4-yl)-3-azabicyclo[3.2.1]octan-6-ol] | 165 nM | 172 nM | 91 nM | 167 nM | -17% | 139 nM | 93 nM | -10% | -50% | 136 nM | 372 nM | -2% | 185 nM | – | – | 3830 nM | 5220 nM
CN(C)C(=O)c1cc2n(n1)CCCN(c1nc(OCC34CCCN3CCC4)nc3c(F)c(-c4c5ccccc5cc5[nH]ncc45)ncc13)C2 [Example 757, 5-(7-(1H-benzo[f]indazol-4-yl)-8-fluoro-2-((hexahydro-1H-pyrrolizin-7a-yl)methoxy)pyrido[4,3-d]pyrimidin-4-yl)-N,N-dimethyl-5,6,7,8-tetrahydro-4H-pyrazolo[1,5-a][1,4]diazepine-2-carboxamide] | 46 nM | 238 nM | 43 nM | 141 nM | 10% | 101 nM | 42 nM | 2% | – | 82 nM | 12 nM | – | 203 nM | – | – | > 10000 nM | 9840 nM
Oc1cc2ccccc2c(-c2ncc3c(N4C[C@@H]5C[C@H](C4)[C@H](O)C5)nc(OC[C@@]45CCCN4C[C@H](F)C5)nc3c2F)c1Cl [Example 765, (1R,5R,6R)-3-(7-(2-chloro-3-hydroxynaphthalen-1-yl)-8-fluoro-2-(((2R,7aS)-2-fluorohexahydro-1H-pyrrolizin-7a-yl)methoxy)pyrido[4,3-d]pyrimidin-4-yl)-3-azabicyclo[3.2.1]octan-6-ol] | 144 nM | 146 nM | 100 nM | 156 nM | -5% | 132 nM | 83 nM | 28% | -13% | 139 nM | 268 nM | -6% | 164 nM | – | – | 2910 nM | 5910 nM
Cc1cc2c(c(-c3ncc4c(N5CCC[C@@](C)(O)C5)nc(OCC56CCCN5CCC6)nc4c3F)c1C)CC(=O)N2 [Example 784, 4-(8-fluoro-2-((hexahydro-1H-pyrrolizin-7a-yl)methoxy)-4-((R)-3-hydroxy-3-methylpiperidin-1-yl)pyrido[4,3-d]pyrimidin-7-yl)-5,6-dimethylindolin-2-one] | 480 nM | 471 nM | 475 nM | 665 nM | – | 4490 nM | 1920 nM | – | 0% | 717 nM | 1320 nM | 19% | 746 nM | 9% | 9% | – | –
Cc1c(O)cc(-c2ncc3c(N4C[C@@H]5C[C@H](C4)[C@H](O)C5)nc(OC[C@@]45CCCN4C[C@H](F)C5)nc3c2F)c2ccccc12 [Example 790, (1R,5R,6R)-3-(8-fluoro-2-(((2R,7aS)-2-fluorohexahydro-1H-pyrrolizin-7a-yl)methoxy)-7-(3-hydroxy-4-methylnaphthalen-1-yl)pyrido[4,3-d]pyrimidin-4-yl)-3-azabicyclo[3.2.1]octan-6-ol] | 9220 nM | 7770 nM | 5660 nM | 10600 nM | – | 5650 nM | 3740 nM | – | 15% | 8020 nM | 11700 nM | 9% | 11000 nM | – | – | – | –
Cc1cc2[nH]nnc2c(-c2ncc3c(N4CCCC5(CNS(=O)(=O)N5)C4)nc(OCC45CCCN4CCC5)nc3c2F)c1C (stereo not shown) [Example 855, 7-(7-(5,6-dimethyl-1H-benzo[d][1,2,3]triazol-4-yl)-8-fluoro-2-((tetrahydro-1H-pyrrolizin-7a(5H)-yl)methoxy)pyrido[4,3-d]pyrimidin-4-yl)-2-thia-1,3,7-triazaspiro[4.5]decane 2,2-dioxide] | 25 nM | 12 nM | 18 nM | 26 nM | – | 31 nM | 16 nM | – | – | 21 nM | 10 nM | – | 23 nM | – | – | > 10000 nM | > 10000 nM
